In patent US9308215B2, “Avermectins and milbemycins as anti-mycobacterial agents” (priority 2013, dated 2016):
Values after ≈ are worked out from the molar mass of the structure shown. Where two headings read alike, the source gives them in different places.

Experiments:
[1] = test system: P. aeruginosa; experiment: microbe, parasite or virus in culture; format: cell-based, Pseudomonas aeruginosa; conditions: Pseudomonas aeruginosa, read-out: In vitro MIC90
[2] = Cats, cited from earlier work
[3] = test system: M. avium; experiment: MIC against mycobacterial species; format: cell-based, Mycobacterium avium; conditions: Mycobacterium avium
[4] = cited from earlier work
[5] = test system: M. smegmatis; experiment: microbe, parasite or virus in culture; format: cell-based, Mycobacterium smegmatis; conditions: Mycolicibacterium smegmatis, MC^2155, read-out: In vitro MIC90
[6] = test system: M. tuberculosis H37Rv and mc25857 (an MDR isolate); format: cell-based, Mycobacterium tuberculosis
[7] = cats; cited from earlier work
[8] = 12 mg/kg oral, cited from earlier work
[9] = test system: A. baumannii; experiment: microbe, parasite or virus in culture; format: cell-based, Acinetobacter baumannii; conditions: Acinetobacter baumannii, ATCC1960, read-out: In vitro MIC90
[10] = test system: M. intracellulare; experiment: MIC against mycobacterial species; format: cell-based; conditions: Mycobacterium intracellulare
[11] = test system: M. gordonae; experiment: MIC against mycobacterial species; format: cell-based; conditions: Mycobacterium gordonae
[12] = Rats, 10 mg/kg oral; cited from earlier work
[13] = test system: M. aurum; experiment: MIC against mycobacterial species; format: cell-based; conditions: Mycolicibacterium aurum
[14] = test system: representative Gram-positive and Gram-negative bacteria; format: cell-based
[15] = test system: M. bovis BCG; experiment: microbe, parasite or virus in culture; format: cell-based, Mycobacterium bovis; conditions: Mycobacterium tuberculosis variant bovis BCG, BCG, read-out: In vitro MIC90
[16] = test system: M. phlei; experiment: MIC against mycobacterial species; format: cell-based; conditions: Mycolicibacterium phlei
[17] = rats; cited from earlier work
[18] = test system: E. coli; experiment: microbe, parasite or virus in culture; format: cell-based, Escherichia coli; conditions: Escherichia coli, read-out: In vitro MIC90
[19] = test system: M. chelonae; experiment: MIC against mycobacterial species; format: cell-based; conditions: Mycobacteroides chelonae
[20] = test system: S. aureus; experiment: microbe, parasite or virus in culture; format: cell-based, Staphylococcus aureus; conditions: Staphylococcus aureus, ATCC25923, read-out: In vitro MIC90
[21] = test system: S. lividans; experiment: microbe, parasite or virus in culture; format: cell-based, Streptomyces lividans; conditions: Streptomyces lividans, read-out: In vitro MIC90
[22] = cited from earlier work; remark: listed apart in the source
[23] = test system: K. rhizophila; experiment: microbe, parasite or virus in culture; format: cell-based, Kocuria rhizophila; conditions: Kocuria rhizophila, read-out: In vitro MIC90
[24] = test system: M. tuberculosis; experiment: microbe, parasite or virus in culture; format: cell-based, Mycobacterium tuberculosis; conditions: for MIC90: Mycobacterium tuberculosis
[25] = test system: R. jostii; experiment: microbe, parasite or virus in culture; format: cell-based, Rhodococcus jostii; conditions: Rhodococcus jostii, read-out: In vitro MIC90
[26] = cited from earlier work; remark: listed apart in the source

CO[C@H]1C[C@H](O[C@@H]2/C(C)=C/C[C@@H]3C[C@@H](C[C@]4(CC[C@H](C)[C@@H](C5CCCCC5)O4)O3)OC(=O)[C@@H]3C=C(C)/C(=N/O)[C@H]4OC/C(=C\C=C\[C@@H]2C)[C@]43O)O[C@@H](C)[C@@H]1O [Selamectin]
MIC90 [1]: > 256 µg/mL
AUC ([2]; 24 mg/kg (topical)): 743.349 µg·h/mL
Cmax ([2]; 24 mg/kg (topical)): 5513 ng/mL
AUC ([2]; 24 mg/kg oral): 1109.933 µg·h/mL
Cmax ([2]; 24 mg/kg oral): 11929 ng/mL
MIC ([3]; ATCC25291, M. avium ATCC 25291): 16 µg/mL (≈ 20.8 µM)
MIC ([3]; M. avium 702): 64 µg/mL (≈ 83.1 µM)
MIC ([3]; M. avium 715): 128 µg/mL (≈ 166 µM)
safe dose extrapolated to a 70 kg adult (from 24 mg/kg in cats and dogs): 1,680 mg
safe dose extrapolated to humans (from 40 mg/kg/day in dogs): 2,800 mg/day
LD50 ([4]; mice): > 1,600 mg/kg body weight
dose well tolerated ([4]; mouse, in vivo): up to 300 mg/kg body weight
MIC90 [5]: 4 µg/mL (≈ 5.19 µM)
bactericidal profile ([6]; 21-day kill curves, various concentrations, H37Rv): strongest bactericidal profile
bactericidal or bacteriostatic ([6]; in vitro against M. tuberculosis, survival kinetics): Bactericidal
doses reported to be safe [7]: up to 24 mg/kg
Cmax ([8]; Mouse (lung)): 7500 ng/mL
AUC ([8]; Mouse (plasma)): 62.2857 µg·h/mL
Cmax ([8]; Mouse (plasma)): 3714 ng/mL
MIC90 [9]: > 256 µg/mL
MIC ([10]; ATCC35761, M. intracellulare 1403 ATCC35761): 1 µg/mL (≈ 1.3 µM)
MIC ([10]; M. intracellulare D673): 2 µg/mL (≈ 2.6 µM)
MIC ([10]; M. intracellulare FM): 2 µg/mL (≈ 2.6 µM)
MIC ([10]; M. intracellulare 1403 Trudeau): 1 µg/mL (≈ 1.3 µM)
MIC [11]: < 0.25 µg/mL
Cmax [12]: >1000 ng/mL
T½ [12]: 10.3 h
MIC [13]: 1 µg/mL (≈ 1.3 µM)
Inhibitory effects [14]: not observed
MIC90 [15]: 4 µg/mL (≈ 5.19 µM)
MIC [16]: 4 µg/mL (≈ 5.19 µM)
LD50 [17]: > 1,600 mg/kg body weight
MIC90 [18]: > 256 µg/mL
MIC [19]: 2 µg/mL (≈ 2.6 µM)
MIC90 [20]: > 256 µg/mL
MIC90 [21]: > 256 µg/mL
oral dose found safe ([22]; 3-month repeated dose toxicity study in dogs): 40 mg/kg/day
doses reported to be safe ([22]; dogs): up to 24 mg/kg
toxicity in dogs lacking MDR1 P-glycoprotein / homozygous MDR1 mutation ([22]; ivermectin: extra-label use, selamectin, moxidectin: therapeutic doses): without any signs of toxicosis
MIC90 [23]: > 256 µg/mL
activity in dose response curves compared to ivermectin and doramectin ([24]; M. tuberculosis H37Rv and an MDR clinical isolate (FIG. 10)): increased activity
activity in dose response curves ([24]; MDR clinical isolates BC-MDR2, BC-MDR3, BC-MDR4 and BC-MDR5 (FIG. 11)): consistently more active than ivermectin
MIC90 ([24]; ERDMAN, read-out: In vitro MIC90, strain Erdman, WT): 2 µg/mL (≈ 2.6 µM)
MIC90 ([24]; read-out: In vitro MIC90, strain 1254, WT): 2 to 4 µg/mL (≈ 2.6 to 5.19 µM)
MIC90 ([24]; read-out: In vitro MIC90, strain BC-DS1 (drug-susceptible)): 2 µg/mL (≈ 2.6 µM)
MIC90 ([24]; read-out: In vitro MIC90, strain BC-DS3 (drug-susceptible)): 1 to 2 µg/mL (≈ 1.3 to 2.6 µM)
MIC90 ([24]; read-out: In vitro MIC90, strain BC-DS4 (drug-susceptible)): 1 to 2 µg/mL (≈ 1.3 to 2.6 µM)
MIC90 ([24]; read-out: In vitro MIC90, strain BC-DS5 (drug-susceptible)): 2 to 4 µg/mL (≈ 2.6 to 5.19 µM)
MIC90 ([24]; read-out: In vitro MIC90, strain CDC 1551, WT): 1 µg/mL (≈ 1.3 µM)
sensitivity of the ivermectin-less-sensitive strains ([24]; strains CI15072, CI12081, BC-MDR2, BC-DS4 and BC-DS5): unaffected
MIC90 [25]: > 256 µg/mL
AUC ([26]; Dogs female, 6 mg/kg (topical)): 8.903 µg·h/mL
Cmax ([26]; Dogs female, 6 mg/kg (topical)): 22.65 ng/mL
T½ ([26]; Dogs female, 6 mg/kg (topical)): 257.5 h
AUC ([26]; Dogs males, 6 mg/kg (topical)): 4.609 µg·h/mL
Cmax ([26]; Dogs males, 6 mg/kg (topical)): 12.72 ng/mL
T½ ([26]; Dogs males, 6 mg/kg (topical)): 291.4 h
AUC ([26]; Dogs, 24 mg/kg (topical)): 15.229 µg·h/mL
Cmax ([26]; Dogs, 24 mg/kg (topical)): 86.5 ng/mL
AUC ([26]; Dogs, 24 mg/kg oral): 227.901 µg·h/mL
Cmax ([26]; Dogs, 24 mg/kg oral): 7630 ng/mL
T½ ([26]; Dogs, 24 mg/kg oral): 45.7 h
